# From patent EP0831877B1, “METABOLIC EFFECTS OF CERTAIN GLUTATHIONE ANALOGS” (TELIK, INC., priority 1995, dated 1996)
# pKi: −log10 of the molar value. Where two headings read alike, the source gives them in different places. Marks after values point to notes of the source that are not given here.
# Legend:
# [1] = target: Human GST P1-1 (Homo sapiens, UniProt P09211); experiment: inhibition of GST isoenzyme P1-1 (Ki); assay type: biochemical; details: for Rank order: rank of Ki for Human GST P1-1
# [2] = system: bone marrow GM-CFU; experiment: 5-fluorouracil-induced GM-CFU suppression in mice
# Description: The control group was not treated with either drug. Bone marrows were harvested and GM-CFUs were determined 24 hours after the final injection.
# Values are the mean ± SE of three mice per point.
# [3] = system: VLB, a vinblastine-resistant variant of SKOV-3; experiment: standard clonogenic assay, potentiation of drug toxicity, VLB; assay type: cell-based
# Description: (§1) ; SKOV-3 an ovarian carcinoma, and VLB, a vinblastine-resistant variant of SKOV-3. Four chemotherapeutic drugs, chlorambucil, adriamycin, mitomycin C and doxorubicin were used as the toxic agents. In these assays, the cells were seeded at 300 cells/well in 2 ml of medium in 6-well plates in the presence of the compounds used in the invention as the diethyl esters. […]. After incubation for 1-2 hours to permit cells to attach, varying doses of the chemotherapeutic agents were added. At least three replicate wells were plated for each test condition and the plates were incubated for two weeks. Colonies were fixed in 95% ethanol and stained with crystal violet for colony counting. IC50 values were determined for the chemotherapeutic agent in the presence or absence of the compound used in the invention and dose modification factors were calculated by dividing the IC50 value of drug without the compound by the IC50 value of the drug with the compound.
# [4] = system: SKOV-3 an ovarian carcinoma; experiment: standard clonogenic assay, potentiation of drug toxicity, SKOV-3; assay type: cell-based
# Description: as §1
# [5] = system: HT4-1, a subclone of HT-29; experiment: standard clonogenic assay, potentiation of drug toxicity, HT4-1; details: HT4-1; TER199 at 25 µM, TER183 dose not given
# [6] = system: HT-29 (human colon adenocarcinoma) cells; experiment: modified clonogenic assay, potentiation of chlorambucil cytotoxicity; assay type: cell-based; details: for DMF of DEE: diethyl ester
# Description: HT-29 (human colon adenocarcinoma) cells were obtained from Dr. Roberto Ceriani (Cancer Research Fund of Contra Costa County, Walnut Creek, CA) and were used in log phase of growth unless otherwise specified. Chlorambucil (CMB) was obtained from Sigma (St. Louis, MO) and was dissolved in 100% ethanol. All GST inhibitors were dissolved in ethanol, DMSO, or water just prior to use. The same amount of solvent added to culture medium served as the vehicle control.
# In a modified clonogenic assay for cytotoxicity, cells were suspended at 2 x 10^5 cells/ml in serum-free medium in the presence of vehicle or inhibitor. […] Cells were incubated for 2 hours, then varying doses of CMB were added. At the end of a second 2-hour incubation, cells were diluted to 7.5-10 x 10^3/ml in serum-containing medium and plated in quadruplicate at 200 µl/well in Microtest III microtiter plates.
# Plates were incubated for 6 days and assayed by a modified methylene blue method. Briefly, cells were fixed with 1.25% glutaraldehyde in PBS then stained with 0.05% methylene blue in distilled water. Plates were washed several times in distilled water to remove unretained dye and retained dye was resolubilized in 0.03 N HCl. Plates were read at 650 nm in a Molecular Devices Vmax plate reader (Molecular Devices, Redwood City, CA). […] A dose modification factor (DMF), a measure of potentiation of cytotoxicity, was calculated for each inhibitor by dividing the IC50 value of CMB without inhibitor treatment by the IC50 value for CMB with inhibitor treatment.
# [7] = target: T1, GST A1-1 (Homo sapiens, UniProt P08263); experiment: inhibition of GST isoenzyme A1-1 (Ki); assay type: biochemical
# T1 sequence (P08263 1-222): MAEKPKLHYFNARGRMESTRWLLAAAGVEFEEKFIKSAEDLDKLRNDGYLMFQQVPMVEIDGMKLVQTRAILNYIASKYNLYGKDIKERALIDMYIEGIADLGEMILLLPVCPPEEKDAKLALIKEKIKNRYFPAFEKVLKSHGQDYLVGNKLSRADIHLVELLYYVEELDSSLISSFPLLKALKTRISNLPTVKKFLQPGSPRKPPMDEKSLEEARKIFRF
# [8] = target: T2, GST M1a-1a (Homo sapiens, UniProt P09488); experiment: inhibition of GST isoenzyme M1a-1a (Ki); assay type: biochemical
# T2 sequence (P09488 1-218): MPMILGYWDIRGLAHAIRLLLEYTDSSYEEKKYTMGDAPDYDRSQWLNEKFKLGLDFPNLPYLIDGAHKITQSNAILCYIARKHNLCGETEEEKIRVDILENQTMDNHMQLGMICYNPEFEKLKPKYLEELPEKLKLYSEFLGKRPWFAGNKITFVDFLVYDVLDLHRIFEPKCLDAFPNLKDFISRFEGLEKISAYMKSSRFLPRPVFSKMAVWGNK
# [9] = system: bone marrow GM-CFU; experiment: stimulation of bone marrow GM-CFU after administration to mice; assay type: in vivo, B6D2F1 mice; details: bone marrow harvested 24 hours after administering
# Description: In an illustrative assay three B6D2F1 mice were treated with various doses of benzyl PG intraperitoneally.
# Mice in the control group were injected with water or saline. Bone marrow cells were harvested 24 hours after drug treatment and added to alpha minimum essential medium (alpha MEM) supplemented with methylcellulose (0.8% w/v), fetal bovine serum (20% v/v), deionized BSA (1% w/v), Pokeweed mitogen-stimulated spleen-cell conditioned medium (PWM-SCCM)^1 (10% v/v) and gentamycin (50 Tg/ml). One ml aliquots were plated (four replicate plates) and incubated for seven days at 37 °C. […] Spleens were removed aseptically from four male B6D2F1 mice enforced through a 200 Tm wire mesh screen to obtain a single cell suspension. Ten ml of the suspension (2-4 X 10^7 cell/ml was added to 90 ml alpha-MEM supplemented with 1% deionized BSA, 50 Tg/ml gentamicin, 0.3% freshly reconstituted pokeweed antigen, 10 µM 2-mercaptoethanol. The mixture was incubated for 5 days at […] in a 5% CO2 atmosphere and the result-ing conditioned medium was centrifuged at 800g for ten minutes and filtered through a 0.22 Tm filter. Aliquots were kept frozen at […] until use.
# Bone marrow was harvested 24 hours after administering the compounds and GM-CFU levels measured as described above.
# [10] = target: T3, GST M2-2 (Homo sapiens, UniProt P28161); experiment: inhibition of GST isoenzyme M2-2 (Ki); assay type: biochemical; details: determined on unesterified form
# T3 sequence (P28161 1-218): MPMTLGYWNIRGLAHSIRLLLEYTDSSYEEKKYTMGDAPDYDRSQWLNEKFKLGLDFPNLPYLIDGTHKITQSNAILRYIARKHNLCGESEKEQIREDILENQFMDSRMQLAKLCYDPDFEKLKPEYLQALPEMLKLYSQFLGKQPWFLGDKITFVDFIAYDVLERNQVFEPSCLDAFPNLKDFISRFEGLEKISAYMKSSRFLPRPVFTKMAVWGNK
# [11] = system: HT4-1 tumors; experiment: potentiation of melphalan toxicity in vivo, implanted HT4-1 tumors; set-up: species or system Male scid mice
# Description: Male scid mice were subcutaneously implanted with HT4-1 tumors from donor mice. HT4-1 is a subclone of HT-29, a human colon cancer. When tumors reached approximately 100 mm^3, the mice were randomized into six treatment groups and treated for seven days as follows: • 1. 5 mg/kg melphalan; • 2. 10 mg/kg ethacrynic acid; • 3. […] 5 mg/kg melphalan + 10 mg/kg ethacrynic acid; • 5.
# The mice were monitored for weight changes and tumor volumes were determined by measurement with calipers. The tumor growth was monitored until the average tumor size reached 1500 mm^3 for all groups except melphalan with ethacrynic acid.
# The results were computed in terms of the tumor volume in the drug treated mice as a percentage of control tumor volume (i.e., in the group administered vehicle alone). In group 1, administered melphalan alone, the tumors were approximately 75% of the volume of controls. […] For group 4 administered a combination of melphalan and ethacrynic acid, the volumes were approximately 35% of control. […] (The volume measurements were taken at the time control tumors reached 1500 mm^3.)
# [12] = system: HT-29 cells; experiment: Cytosensor Microphysiometer acidification rates; assay type: cell-based, human; details: 4 hours pretreatment, TER199 20 µM, ethacrynic acid 50 µM
# Description: The metabolic effects related to toxicity of the compounds of the invention on HT-29 cells, were tested using a Cytosensor Microphysiometer made by Molecular Devices, Inc., Menlo Park, CA and described in McConnell, H.M. et al. Science (1992) 257:1906-1912 and by Wada, H.G. et al. AATEX (1992) 1:154-164. Changes in pH of the culture medium are measured as a function of cellular metabolism. Acidification rates of the small volume of liquid flowing over the cells correlate with the number of live cells in the reaction chamber; a reduction of acidification rate reflects reduced numbers of surviving cells. […] The medium was then replaced with serum-free low buffer capacity medium and Microphysiometer analysis was initiated.
# [13] = in vitro half-life / metabolism in mouse blood; assay type: in vitro ADME
# [14] = in vitro half-life in human blood; assay type: in vitro ADME
# [15] = chlorambucil, mean ±S.D. of 2-3 experiments
# [16] = determined on unesterified form
# [17] = chlorambucil, HT-29, dose tested 12.5 µM, mean ±S.D. of 2-3 experiments
# Human GST P1-1, sequence (P09211 2-210 limits assumed): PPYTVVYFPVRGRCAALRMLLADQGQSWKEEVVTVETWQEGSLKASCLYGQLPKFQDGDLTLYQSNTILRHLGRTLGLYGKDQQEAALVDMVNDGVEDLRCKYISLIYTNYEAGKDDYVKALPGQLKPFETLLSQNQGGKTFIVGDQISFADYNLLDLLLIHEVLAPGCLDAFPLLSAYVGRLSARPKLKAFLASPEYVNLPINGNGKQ
molecule,measurement,setting,value
"CCCCCCCCSC[C@H](NC(=O)CC[C@H](N)C(=O)O)C(=O)NCC(=O)O [TER143, γE-C(octyl)-G]",Rank order,[1],4
"O=c1[nH]cc(F)c(=O)[nH]1 [5-FU, 5-fluorouracil, reference compound]",GM-CFU,[2]; 75 mg/kg 5-FU IP alone,15 % of control
same,GM-CFU,"[2]; 5-FU 75 mg/kg i.p. alone, harvest 48 hours",47 % of control
same,GM-CFU,"[2]; 5-FU 150 mg/kg i.p. alone, harvest 48 hours",8 % of control
same,GM-CFU by day 4 after 5-FU administration (Figure 9b),[2]; 5-FU only,approximately equal to control
γE-C(naphthyl)-G [TER211],Rank order,[1],3
"CCCCCCCCSC[C@H](NC(=O)CC[C@H](N)C(=O)OCC)C(=O)NCC(=O)OCC [TER183, γE-C(octyl)-G diethyl ester]",DMF for Adriamycin,"[3]; TER199 at 25 µM, TER183 dose not given",1.06
same,DMF for Mitomycin C,[3]; test dose not given,1.63
same,DMF for Adriamycin,[4]; analog @5 uM,1.24 (@5 uM)^c
same,DMF for Chlorambucil,[4]; test dose not given,1.03
same,DMF for Adriamycin,[5],1.13
same,DMF for Chlorambucil,[5],1.74
same,DMF for Mitomycin C,[5],1.56
same,"DMF (dose modification factor), Diethyl ester","[6]; chlorambucil, HT-29, dose tested 5 µM, mean ±S.D. of 2-3 experiments",0.86±0.02
same,DMF of DEE,[6]; [15],0.864
"CCCCCCCCSC[C@H](NC(=O)CC[C@H](N)C(=O)OCC)C(=O)NCC(=O)OCC [TER143, γE-C(octyl)-G]",pKi,[7],6.57
same,pKi,[8],5.92
same,pKi,[1],5.72
γE-C(naphthyl)-G [TER206],pKi,[7]; [16],5.38
same,pKi,[8]; [16],8.00
same,"effect on GM-CFU, analogs of TER199 (Figure 8)",[9],inactive
same,pKi,[1]; [16],5.92
same,pKi,[10],5.82
same,"DMF (dose modification factor), Diethyl ester",[6]; [17],1.21±0.01
same,DMF of DEE,[6]; [15],1.213
γE-C(Bz) (S+)-fA [TER317],pKi,[7]; [16],< 3.00
same,pKi,[8]; [16],< 3.00
same,"effect on GM-CFU, analogs of TER199 (Figure 8)",[9],inactive
same,pKi,[1]; [16],< 3.00
same,pKi,[10],< 3.00
"CCCCCCSC[C@H](NC(=O)CC[C@H](N)C(=O)O)C(=O)N[C@@H](C(=O)O)c1ccccc1 [TER102, γE-C(hexyl)-ϕG]",specificity for GST P1-1,"[1]; among TER117, TER102, TER211, TER143",reasonably specific
same,Rank order,[1],2
same,"DMF (dose modification factor), Parent Compound","[6]; chlorambucil, HT-29, dose tested 100 µM, mean ±S.D. of 2-3 experiments",1.1±0.02
"CCCCCCSC[C@H](NC(=O)CC[C@H](N)C(=O)OCC)C(=O)NC(C(=O)OCC)c1ccccc1 (some centres unmarked) [γE-C(Hx)-ϕG diethyl ester, γE-C(Hx)-ϕG]","DMF (dose modification factor), Diethyl ester",[6]; [17],1.27±0.02
same,DMF of DEE,[6]; [15],1.272
"C=C(CC)C(=O)c1ccc(OCC(=O)O)c(Cl)c1Cl [ethacrynic acid, reference compound]",time until average tumor size reached 1500 mm^3,"[11]; 5 mg/kg melphalan + 10 mg/kg ethacrynic acid, volume not reached",> 72 days
same,tumor volume as a percentage of control tumor volume,"[11]; group 4: 5 mg/kg melphalan + 10 mg/kg ethacrynic acid, seven days, when control tumors reached 1500 mm^3",approximately 35%
same,"effect on acidification rates, compound alone (Figure 2)",[12]; no chlorambucil,Neither γE-C(Bz)-ϕG diethylester (TER199) nor ethacrynic acid alone had any appreciable effect
same,effect of pretreatment on acidification rates with chlorambucil (Figure 2),[12]; then 100 µM chlorambucil,potentiated the effect of chlorambucil
"CCNC(=O)C(N)CCC(=O)NC(CSCc1ccccc1)C(=O)N[C@@H](C(=O)NCC)c1ccccc1 (stereo partly drawn) [TER278, γE ethyl amide-C(Bz)-R-(-)-ϕG ethyl amide]",half-life compared with TER199,[13],longer half-lives than TER199
same,"half-life, comparison of the three compounds",[14],approximately the same
same,DMF for chlorambucil toxicity,"[6]; HT-29, 200 µM, single experiment",1.0
same,ability to potentiate chlorambucil compared with TER199,[6]; test system not stated,less able to potentiate chlorambucil
same,toxicity compared with TER199,[6]; test system not stated,less toxic
